According to article PMC6630699, “Synthesis and Cytotoxicity Evaluation of DOTA-Conjugates of Ursolic Acid” (Molecules, 2019):
Counter-ions that a name gives are not always drawn.

What was measured:
[1] = tested on: MCF-7 (breast adenocarcinoma); experiment: SRB cytotoxicity assay, MCF-7; type: cell-based, human; conditions: for EC50: Homo sapiens, MCF7, SRB assay, 72 h of treatment; for Selectivity index SI MCF-7: SI = EC50 (NIH 3T3)/EC50 (MCF-7)
Text: (§1) Due to cytotoxicity evaluation, the prepared UA-DOTA conjugates were screened in rhodamine B assays employing a series of human tumor cell lines and non-malignant mouse fibroblasts (NIH 3T3).
(§2) The cell lines used are human cancer cell lines: A2780 (ovarian carcinoma), HT29 (colon adenocarcinoma), MCF-7 (breast adenocarcinoma), A375 (melanoma), FaDu (pharynx squamous cell carcinoma) and non-malignant mouse fibroblasts NIH 3T3; all cell lines were obtained from the Department of Oncology (Martin-Luther-University Halle-Wittenberg). Cultures were maintained as monolayers in RPMI 1640 medium with L-glutamine (Capricorn Scientific GmbH, Ebsdorfergrund, Germany) supplemented with 10% heat inactivated fetal bovine serum (Sigma-Aldrich Chemie GmbH, Steinheim, Germany) and penicillin/streptomycin (Capricorn Scientific GmbH, Ebsdorfergrund, Germany) at 37 °C in a humidified atmosphere with 5% CO2.
(§3) The cytotoxicity of the compounds was evaluated using the sulforhodamine-B (Kiton-Red S, ABCR) micro culture colorimetric assay. Cells were seeded into 96-well plates on day 0 at appropriate cell densities to prevent confluence of the cells during the period of experiment. After 24 h, the cells were treated with six different concentrations (1, 3, 7, 12, 20, and 30 µM) minimum. The final concentration of DMSO/DMF never exceeded 0.5%, which was non-toxic to the cells. After a 72-h treatment, the supernatant medium from the 96-well plates was discarded, the cells were fixed with 10% trichloroacetic acid (TCA) and allowed to rest at 4 °C. After 24 h fixation, the cells were washed in a strip washer and dyed with SRB solution (100 µL, 0.4%, in 1% acetic acid) for about 20 min. After dying, the plates were washed four times with 1% acetic acid to remove the excess of the dye and allowed to air-dry overnight. Tris base solution (200 µL, 10 mM) was added to each well and absorbance was measured at λ = 570 nm using a 96 well plate reader (Tecan Spectra, Crailsheim, Germany). The EC50 values were averaged from three independent experiments performed each in triplicate calculated from semi logarithmic dose response curves applying a non-linear 4P Hills-slope equation (GraphPad Prism5; variables top and bottom were set to 100 and 0, respectively).

[2] = tested on: HT29 (colon adenocarcinoma); experiment: SRB cytotoxicity assay, HT29; type: cell-based, human; conditions: for EC50: Homo sapiens, HT-29, SRB assay, 72 h of treatment; for Selectivity index SI HT29: SI = EC50 (NIH 3T3)/EC50 (HT29)
Text: as §1, §2, §3

[3] = tested on: A2780 (ovarian carcinoma); experiment: SRB cytotoxicity assay, A2780; type: cell-based, human; conditions: for EC50: Homo sapiens, A2780, 72 h, SRB assay, 72 h of treatment; for Selectivity index SI A2780: SI = EC50 (NIH 3T3)/EC50 (A2780)
Text: as §1, §2, §3

[4] = tested on: non-malignant mouse fibroblasts NIH 3T3; experiment: SRB cytotoxicity assay, NIH 3T3; type: cell-based; conditions: NIH3T3, 72 h of treatment
Text: as §1, §2, §3

[5] = tested on: FaDu (pharynx squamous cell carcinoma); experiment: SRB cytotoxicity assay, FaDu; type: cell-based, human; conditions: for EC50: Homo sapiens, FaDu, SRB assay, 72 h of treatment; for Selectivity index SI FaDu: SI = EC50 (NIH 3T3)/EC50 (FaDu)
Text: as §1, §2, §3

A375 (melanoma) = experiment: SRB cytotoxicity assay, A375; type: cell-based, human; conditions: for EC50: Homo sapiens, A-375, SRB assay, 72 h of treatment; for Selectivity index SI A375: SI = EC50 (NIH 3T3)/EC50 (A375)
Text: as §1, §2, §3

human tumor cell lines = experiment: SRB cytotoxicity assay, statements over the whole cell line panel; type: cell-based; conditions: summary over all tumor cell lines
Text: as §1, §2, §3

melting point [°C]	SMILES	EC50 [1] [µM]	Selectivity index SI MCF-7 [1]	EC50 [2] [µM]	Selectivity index SI HT29 [2]	EC50 [3] [µM]	Selectivity index SI A2780 [3]	EC50 [4] [µM]	EC50 [5] [µM]	Selectivity index SI FaDu [5]	EC50 (A375 (melanoma)) [µM]	Selectivity index SI A375 (A375 (melanoma))	EC50 (human tumor cell lines) [µM]
–	COc1cccc2c1C(=O)c1c(O)c3c(c(O)c1C2=O)C[C@@](O)(C(=O)CO)C[C@@H]3O[C@H]1C[C@H](N)[C@H](O)[C@H](C)O1 [DRC, doxorubicin hydrochloride, reference compound]	1.1 ± 0.3	0.05	0.9 ± 0.2	0.07	0.01 ± 0.01	6.00	0.06 ± 0.03	–	–	–	–	–
–	C[C@H]1[C@H](C)CC[C@]2(C(=O)O)CC[C@]3(C)C(=CC[C@@H]4[C@@]5(C)CC[C@H](O)C(C)(C)[C@@H]5CC[C@]43C)[C@H]12 [UA, Ursolic acid]	12.7 ± 0.1	1.03	10.6 ± 0.7	1.24	11.7 ± 0.6	1.12	13.1 ± 1.1	–	–	–	–	–
180 to 182	CC(C)(C)OC(=O)CN1CCNCCN(CC(=O)OC(C)(C)C)CCN(CC(=O)OC(C)(C)C)CC1 [compound 6, Tri-tert-butyl 2,2′,2’’-(1,4,7,10-tetraazacyclododecane-1,4,7-triyl)triacetate]	11.3 ± 2.3	1.53	8.7 ± 2.7	1.99	10.5 ± 3	1.65	17.3 ± 0.1	9.5 ± 0.9	1.82	12.4 ± 2.7	1.40	10 to 14
–	O=C(CN1CCNCCN(CC(=O)OCc2ccccc2)CCN(CC(=O)OCc2ccccc2)CC1)OCc1ccccc1 [compound 7, Tribenzyl 2,2’,2’’-(1,4,7,10-tetraazacyclododecane-1,4,7-triyl)triacetate]	4.1 ± 0.5	1.10	2 ± 0.2	2.25	3.8 ± 0.3	1.18	4.5 ± 0.3	3.9 ± 0.7	1.15	4.7 ± 0.3	0.96	< 5
142 to 146	CC(=O)O[C@H]1CC[C@]2(C)[C@H]3CC=C4[C@@H]5[C@@H](C)[C@H](C)CC[C@]5(C(=O)NCCN5CCN(C(=O)CN6CCN(CC(=O)OCc7ccccc7)CCN(CC(=O)OCc7ccccc7)CCN(CC(=O)OCc7ccccc7)CC6)CC5)CC[C@@]4(C)[C@]3(C)CC[C@H]2C1(C)C [compound 13, Tribenzyl 2,2’,2’’-[10-[2-[4-[2-(3β-acetyloxy-urs-12-en-28-oylamino)ethyl]piperazin-1-yl]-2-oxoethyl]-1,4,7,10-tetraazacyclododecane-1,4,7-triyl]triacetate]	3.3 ± 0.2	1.09	4 ± 0.4	0.90	2.1 ± 0.4	1.71	3.6 ± 0.5	6 ± 0.1	0.60	–	–	< 6
–	C[C@H]1[C@H](C)CC[C@]2(C(=O)NCCNC(=O)CN3CCN(CC(=O)OC(C)(C)C)CCN(CC(=O)OC(C)(C)C)CCN(CC(=O)OC(C)(C)C)CC3)CC[C@]3(C)C(=CC[C@@H]4[C@@]5(C)CC[C@H](O)C(C)(C)[C@@H]5CC[C@]43C)[C@H]12 [compound 29, Tri-tert-butyl 2,2’,2’’-[10-[2-[2-(3β-hydroxy-urs-12-en-28-oylamino)ethyl]amino-2-oxoethyl]-1,4,7,10-tetraazacyclododecane-1,4,7-triyl]triacetate]	–	–	1.7 ± 0.4	1.35	1.6 ± 0.5	1.44	2.3 ± 0.7	2.9 ± 0.4	0.79	2 ± 0.3	1.15	–
